From publication PMC11032326, “A practical synthesis of nitrone-derived C5a-functionalized isofagomines as protein stabilizers to treat Gaucher disease” (Communications Chemistry, 2024)
Values belong to the molecule of their own block, whether it stands above or below them.

How the values were obtained:
[1] = tested on: β-glucosidase activity in p.Asn370Ser/p.Leu29Alafs*18 Gaucher fibroblasts (GM00372); experiment: Intact cell β-glucosidase activity study (chaperone activity) in Gaucher fibroblasts; assay type: cell-based, human; conditions: compared to untreated cells (=1)
Procedure: (§1) GM00372 cells were seeded into 96-well culture plates. […] The final concentration of DMSO was <0.5% which had no cytotoxicity or glucosidase inhibition. The cells were incubated for 5 days and the medium for DMSO-treated cells or compound-treated cells was renewed every 3 days. The enzyme activity assay was performed after removing the medium supplemented with compounds. Compounds were evaluated at all concentrations in triplicate. The monolayers were washed with Dulbecco’s PBS solution (Gibco pH 7.4). PBS (16 μL) and acetate buffer (0.2 M, 16 μL, pH 4.0) were added to each well. The reaction was started by the addition of 4-methylumbelliferyl β-D-glucoside (4 mM, 25 μL, Sigma) to each well, followed by incubation at 37 °C for 2 h. The reaction was stopped by lysing the cells with glycine buffer (0.2 M, 200 μL, pH 10.8). The fluorescence was also measured by the release of 4-methylumbelliferone with an excitation wavelength of 355 nm and an emission wavelength of 460 nm (SpectraMax M5, Molecular Devices). The fluorescence of untreated cells was compared with those treated with compounds. Among the resynthesized compounds, compound 16 was further subjected to the same experiments described above thoroughly at the concentration of 0–500 nM. Likewise, 4-methylumbelliferyl α-D-glucoside (4 mM, 25 μL, Sigma) was used to evaluate the cellular α-glucosidase activity in GM00372 cells treated with or without compound 16 (0–500 nM).

[2] = target: T1, rh-GCase (Homo sapiens, UniProt P04062); experiment: Thermal stability shift assay (fluorescence-based thermal denaturation); assay type: binding; conditions: compared to Tm of rh-GCase without small molecule; for In-vitro rh-GCase stabilization ΔTm: 100 µM, pH 7.0; for ΔTm at 100 µM: pH 7, 100 µM, read-out: In-vitro rh-GCase stabilization ΔTm
T1 sequence (P04062 40-536): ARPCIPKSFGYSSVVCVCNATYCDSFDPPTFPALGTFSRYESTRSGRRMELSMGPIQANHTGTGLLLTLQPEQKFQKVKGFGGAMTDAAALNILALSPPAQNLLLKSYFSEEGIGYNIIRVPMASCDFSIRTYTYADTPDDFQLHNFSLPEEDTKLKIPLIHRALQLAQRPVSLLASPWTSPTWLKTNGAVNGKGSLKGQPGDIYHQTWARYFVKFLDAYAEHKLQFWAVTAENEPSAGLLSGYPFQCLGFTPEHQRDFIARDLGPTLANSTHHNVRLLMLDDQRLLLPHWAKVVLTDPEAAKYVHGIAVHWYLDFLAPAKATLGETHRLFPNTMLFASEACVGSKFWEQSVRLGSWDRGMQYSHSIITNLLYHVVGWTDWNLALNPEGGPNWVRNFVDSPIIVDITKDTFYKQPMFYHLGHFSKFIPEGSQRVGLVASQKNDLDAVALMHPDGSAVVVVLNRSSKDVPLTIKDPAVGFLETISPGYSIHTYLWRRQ
Procedure: The stability of rh-GCase was assessed using a modified fluorescence thermal stability assay on a Rotor-Gene system in a neutral pH buffer (phosphate buffer, pH 7.0). […] A thermal gradient was applied to the plate at a rate of 1 °C/minute, during which time the fluorescence of SYPRO Orange was continuously monitored. The fluorescence intensity at each temperature was normalized to the maximum fluorescence after complete thermal denaturation.

[3] = tested on: Gaucher p.Asn370Ser fibroblasts (GM00372); experiment: rh-GCase activity in Gaucher patient fibroblasts (co-administration), GM00372; assay type: cell-based, human; conditions: rh-GCase 0.17 μM, 16 at 1 μM, 24 h
Procedure: (§2) Gaucher patient fibroblasts (GM00372 and GM00877) (2 × 10^4 cells) were seeded in 48-well culture plates and incubated overnight. […] After 24 h, the medium was refreshed without rh-GCase and SMPSs, then the cells were incubated for another 24 h. Cells were harvested by trypsinization and the cell pellets were washed twice with PBS and lysed with lysis buffer containing 0.1% Triton X-100, 50 mM Tris-HCl, and 150 mM NaCl. GCase activity assay was performed by mixing lysate (10 μl) and substrate (90 μL of 4 mM 4-methylumbelliferyl β-D-glucopyranoside) in 0.1 M NaOAc and incubating at 37 °C for 1 h. Reactions were terminated by adding 0.2 N glycine-NaOH, pH 10.7. The fluorescence was detected at excitation/emission wavelengths 355/460 nm.

[4] = tested on: cellular α-glucosidase activity in GM00372 cells; experiment: Intact cell α-glucosidase activity study in Gaucher fibroblasts; assay type: cell-based, human; conditions: 0–500 nM
Procedure: as §1, with “Likewise, 4-methylumbelliferyl α-D-glucoside (4 mM, 25 μL, Sigma) was used to evaluate the cellular α-glucosidase activity in GM00372 cells treated with or without compound 16 (0–500 nM).” left out

[5] = tested on: p.Leu444Pro Gaucher fibroblasts (GM00877); experiment: rh-GCase activity in Gaucher patient fibroblasts (co-administration), GM00877; assay type: cell-based, human; conditions: rh-GCase 0.17 μM, 16 at 1 μM, 24 h
Procedure: as §2

[6] = target: T1, rh-GCase; experiment: rh-GCase inhibition study (in-situ screening and IC50 of resynthesized compounds); assay type: biochemical; conditions: for IC50: resynthesized compounds, read-out: IC50 against rh-GCase
[7] = Fluorescence-based thermal shift assay of pegylated rh-GCases; assay type: physicochemical; conditions: rh-GCase modified by MeO-PEG-NHS (Mw 5000 Da), molar ratio reagent to enzyme
Text: Supplementary Figure 1. Characterization of rh-GCase modified by MeO-PEG-NHS (Mw 5000 Da) with different molar ratios of reagent to the enzyme. (A) SDS-PAGE analysis of the pegylated rh-GCases indicated the acceptable effectiveness of the modification reaction, but reacting rh-GCase with longer MeO-PEG-NHS reagents resulted the incomplete pegylation (data not shown). (B) The […]
(also on this page, place not known: rh -GCase MeO -PEG-NHS rh -GCase MeO -PEG-NHS 40 50 60 70 0 20 40 60 80 100 Mono-PEG5k (50 eq) Mono-PEG5k (100 eq) Temperature (oC) Unfolded protein (%)) […]

Molecule: O=C(/C=C/c1cccc(Br)c1)NC[C@@H]1NC[C@@H](O)[C@H](O)[C@H]1CO [Compound 16]
β-glucosidase activity enhancement in p.Asn370Ser cells ([1]; 10 nM): 2.5 fold
β-glucosidase activity enhancement in p.Asn370Ser cells ([1]; 25 nM): up to 2.7 fold
In-vitro rh-GCase stabilization ΔTm [2]: 14.2 °C
ΔTm at 100 µM [2]: 13.2 °C
activity enhancement on co-administration with rh-GCase compared to rh-GCase alone [3]: 13 fold
influence on cellular α-glucosidase activity [4]: without impairing cellular α-glucosidase activity
activity enhancement on co-administration with rh-GCase compared to rh-GCase alone [5]: 9.1 fold
IC50 [6]: 4 ± 0.7 nM

Molecule: O=C(NC[C@@H]1NC[C@@H](O)[C@H](O)[C@H]1CO)c1ccc2ccccc2c1 [Compound 23]
IC50 [6]: 63.6 ± 9.5 nM

Molecule: O=C(Cc1ccc(Br)cc1)NC[C@H]1NC[C@@H](O)[C@H](O)[C@H]1CO [Compound 22]
IC50 [6]: 250 ± 49 nM

Molecule: O=C(NC[C@@H]1NC[C@@H](O)[C@H](O)[C@H]1CO)c1cccc2c1C(=O)c1ccccc1-2 [Compound 27]
IC50 [6]: 68.3 ± 22 nM

Molecule: O=C(Cc1ccc(Br)cc1)NC[C@@H]1NC[C@@H](O)[C@H](O)[C@H]1CO [Compound 17]
β-glucosidase activity enhancement in p.Asn370Ser cells ([1]; 100 nM): 1.7 fold
In-vitro rh-GCase stabilization ΔTm [2]: 13.2 °C
ΔTm at 100 µM [2]: 14.2 °C
IC50 [6]: 5.1 ± 1.1 nM

Molecule: C/C(=C\c1ccccc1)C(=O)NC[C@@H]1NC[C@@H](O)[C@H](O)[C@H]1CO [Compound 15]
β-glucosidase activity enhancement in p.Asn370Ser cells ([1]; 100 nM): 1.8 fold
ΔTm at 100 µM [2]: 11.3 °C
IC50 [6]: 30 ± 7.8 nM

Molecule: OC[C@H]1CNC[C@@H](O)[C@@H]1O [IFG, isofagomine]
β-glucosidase activity enhancement in p.Asn370Ser cells ([1]; 1000 nM): 1.7 fold
ΔTm at 100 µM [2]: 9.6 °C
activity enhancement on co-administration with rh-GCase compared to rh-GCase alone [3]: 7 fold
activity enhancement on co-administration with rh-GCase compared to rh-GCase alone [5]: 6 fold

Molecule: O=C(NC[C@H]1NC[C@@H](O)[C@H](O)[C@H]1CO)c1cccc2c1C(=O)c1ccccc1-2 [Compound 21]
IC50 [6]: 25.9 ± 11.1 nM

B1: rh-GCase: recombinant human GCase used for enzyme replacement therapy (protein, UniProt P04062 40-536, looked up)
Lysosomal acid …: T1 sequence (P04062 40-536)
Tm [7]: 49.1 ± 0.1 oC

B2: Mono-PEG5k (50 eq): rh-GCase modified by MeO-PEG-NHS (Mw 5000 Da), 50 eq of reagent (conjugate, UniProt P04062 40-536, looked up)
Lysosomal acid …: T1 sequence (P04062 40-536)
modifications: PEG 5 kDa, 50 eq
notes: rh-GCase modified by MeO-PEG-NHS (Mw 5000 Da), 50 eq of reagent
Tm [7]: 51.7 ± 0.3 oC

B3: Mono-PEG5k (100 eq): rh-GCase modified by MeO-PEG-NHS (Mw 5000 Da), 100 eq of reagent (conjugate, UniProt P04062 40-536, looked up)
Lysosomal acid …: T1 sequence (P04062 40-536)
modifications: PEG 5 kDa, 100 eq
notes: rh-GCase modified by MeO-PEG-NHS (Mw 5000 Da), 100 eq of reagent
Tm [7]: 50.3 ± 0.4 oC

Other lines, results leading:

IC50 [6]: 191 ± 43 nM
Molecule: Cc1ccc(C(=O)NC[C@H]2NC[C@@H](O)[C@H](O)[C@H]2CO)c([N+](=O)[O-])c1 [Compound 18]

IC50 [6]: 3.7 ± 0.4 nM
fold greater inhibitory potency than IFG ([6]; rh-GCase IC50 compared with IFG): 50 fold
Molecule: O=C(NCC1NCC(O)C(O)C1CO)c1ccc2ccccc2c1 (stereo not shown) [S1]

IC50 [6]: 7.7 ± 1.5 nM
Molecule: COc1ccc(Br)cc1/C=C/C(=O)NC[C@H]1NC[C@@H](O)[C@H](O)[C@H]1CO [Compound 19]

IC50 [6]: 45.6 ± 13.7 nM
Molecule: COc1ccc(C(=O)NC[C@H]2NC[C@@H](O)[C@H](O)[C@H]2CO)c(OC)c1 [Compound 20]

IC50 [6]: 26.4 ± 8 nM
Molecule: COc1ccc(Br)cc1/C=C/C(=O)NC[C@@H]1NC[C@@H](O)[C@H](O)[C@H]1CO [Compound 25]

IC50 [6]: 11 ± 0.7 nM
Molecule: Cc1ccc(C(=O)NC[C@@H]2NC[C@@H](O)[C@H](O)[C@H]2CO)c([N+](=O)[O-])c1 [Compound 24]

IC50 [6]: 200 ± 32 nM
Molecule: COc1ccc(C(=O)NC[C@@H]2NC[C@@H](O)[C@H](O)[C@H]2CO)c(OC)c1 [Compound 26]
